Values quoted from earlier work in patent US12357667B2, “Nutraceutical formulations to prevent, treat, and inhibit excess cytokines, SARS-CoV-2 spike proteins, and mRNA vaccine spike proteins” (priority 2021, dated 2025).
Structures can show the parent of a compound that is named as a salt.

How the values were obtained:
main proteases (6Y2E) = molecular target: T1, main proteases (6Y2E) (Severe acute respiratory syndrome coronavirus 2, UniProt P0DTD1); settings: 6Y2E active sites
T1 construct: main proteases (6LU7 and 6Y2E)

[1] = tested on: pseudovirus expressing the SARS-CoV-2 spike protein
SARS-CoV-2 [2] = tested on: SARS-CoV-2
[3] = tested on: mouse hepatitis virus (MHV); settings: A549-MHVR cells, non-toxic conditions; read-out: EC50, suppression of MHV replication
SARS-CoV-2 [4] = tested on: SARS-CoV-2; remark: listed apart in the source
SARS-CoV-2 [5] = settings: patients previously taking CBD relative to matched pairs or the general population
SARS-CoV-2 [6] = settings: lung epithelial cells
SARS-CoV-2 [7] = settings: structure-based molecular docking
Furin = Furin (Homo sapiens, UniProt P09958)
blood coagulation = settings: in vitro coagulation assays
SARS-CoV-2 [8] = tested on: SARS-CoV-2; remark: listed apart in the source
[9] = tested on: human influenza viruses (H5N1, Vietnam/VN1203 strain)
influenza = settings: 6-month preventive administration
pseudotyped SARS-CoV-2 = settings: VeroE6/TMPRSS2 cells
RBD and ACE2 = RBD and ACE2 (Severe acute respiratory syndrome coronavirus 2, UniProt P0DTC2)
[10] = tested on: respiratory syncytial virus; settings: respiratory syncytial virus-infected mice
[11] = tested on: multiple strains of SARS-CoV-2, including Delta and Omicron
[12] = hyperlipidemic rats
[13] = 6 mg/day for 4 weeks, active young men
[14] = not given; remark: listed apart in the source
SARS-CoV-2 viral S-spike = SARS-CoV-2 viral S-spike (Severe acute respiratory syndrome coronavirus 2, UniProt P0DTC2); settings: supercomputer modeling; out of 20 top performers
[15] = molecular target: T2, 3-chymotrypsin-like protease (3CLpro) (Severe acute respiratory syndrome coronavirus 2, UniProt P0DTD1)
T2 construct: 3-chymotrypsin-like protease (3CLpro)

[16] = molecular target: T3, papain-like protease (PLpro) (Severe acute respiratory syndrome coronavirus 2, UniProt P0DTD1)
T3 construct: papain-like protease (PLpro)

[17] = tested on: glutamate-cysteine ligase; set-up: dose or concentration left out as unconfirmed; settings: zinc, ARPE-19 cells
CB1 = CB1 (Homo sapiens, UniProt P21554)
[18] = molecular target: cannabinoid G-protein coupled receptor CB2 (Homo sapiens, UniProt P34972)
Sequence of cannabinoid G-protein coupled receptor CB2 (P34972 whole entry): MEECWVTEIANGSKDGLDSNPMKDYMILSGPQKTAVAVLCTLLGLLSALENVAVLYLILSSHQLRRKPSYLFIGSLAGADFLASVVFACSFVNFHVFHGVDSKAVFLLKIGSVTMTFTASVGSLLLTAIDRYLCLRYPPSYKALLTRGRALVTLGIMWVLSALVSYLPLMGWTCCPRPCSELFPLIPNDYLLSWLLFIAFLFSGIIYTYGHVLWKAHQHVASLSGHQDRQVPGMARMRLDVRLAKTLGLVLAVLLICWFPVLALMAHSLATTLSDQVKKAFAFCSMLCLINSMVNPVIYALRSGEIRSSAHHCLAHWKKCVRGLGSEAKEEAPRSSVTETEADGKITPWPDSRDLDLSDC

Sequence of Furin (P09958 108-794, species assumed): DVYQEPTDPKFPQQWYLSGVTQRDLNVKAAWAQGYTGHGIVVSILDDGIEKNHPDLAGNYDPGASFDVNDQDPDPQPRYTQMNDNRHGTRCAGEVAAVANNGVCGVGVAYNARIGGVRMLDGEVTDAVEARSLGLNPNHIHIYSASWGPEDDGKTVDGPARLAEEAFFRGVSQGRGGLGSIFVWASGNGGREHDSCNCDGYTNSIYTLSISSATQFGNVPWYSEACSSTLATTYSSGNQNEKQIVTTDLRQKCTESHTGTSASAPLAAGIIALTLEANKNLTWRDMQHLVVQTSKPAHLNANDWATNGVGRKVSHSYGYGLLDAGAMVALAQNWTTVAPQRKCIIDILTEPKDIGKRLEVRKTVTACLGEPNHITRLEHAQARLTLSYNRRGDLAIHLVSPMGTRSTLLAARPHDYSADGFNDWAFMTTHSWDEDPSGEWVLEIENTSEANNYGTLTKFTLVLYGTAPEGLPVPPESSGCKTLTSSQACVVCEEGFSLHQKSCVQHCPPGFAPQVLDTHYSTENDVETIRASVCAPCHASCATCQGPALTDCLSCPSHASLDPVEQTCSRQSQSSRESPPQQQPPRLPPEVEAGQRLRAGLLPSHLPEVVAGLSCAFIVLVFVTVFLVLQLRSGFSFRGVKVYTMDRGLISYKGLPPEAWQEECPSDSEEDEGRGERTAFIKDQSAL
Sequence of CB1 (P21554 whole entry, species assumed): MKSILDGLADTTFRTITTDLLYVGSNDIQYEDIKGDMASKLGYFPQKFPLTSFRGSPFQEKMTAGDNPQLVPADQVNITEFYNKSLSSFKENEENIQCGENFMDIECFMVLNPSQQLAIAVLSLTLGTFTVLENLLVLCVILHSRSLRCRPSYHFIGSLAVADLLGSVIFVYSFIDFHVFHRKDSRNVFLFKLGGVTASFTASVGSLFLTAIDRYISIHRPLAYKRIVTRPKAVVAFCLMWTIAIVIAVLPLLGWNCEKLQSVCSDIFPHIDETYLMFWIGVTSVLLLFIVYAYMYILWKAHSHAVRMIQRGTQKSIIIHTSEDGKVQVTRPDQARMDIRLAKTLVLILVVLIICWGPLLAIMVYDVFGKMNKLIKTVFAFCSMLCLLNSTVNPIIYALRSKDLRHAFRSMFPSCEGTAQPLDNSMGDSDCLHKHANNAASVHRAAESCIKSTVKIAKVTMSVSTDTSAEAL

## CC1(C)CC[C@]2(C(=O)O)CC[C@]3(C)C(=CC[C@@H]4[C@@]5(C)CC[C@H](O)[C@@](C)(CO)[C@@H]5CC[C@]43C)[C@@H]2C1 [hederagenin]
Main proteases (6Y2E)
  docking binding score with 6Y2E: less than saquinavir

## C=C(C)[C@@H]1CCC(C)=C[C@H]1c1c(O)cc(CCCCC)c(C(=O)O)c1O [cannabidiolic acid]
Live SARS-CoV-2
  entry of live SARS-CoV-2 into cells: prevented entry
[1]
  infection of human epithelial cells by pseudovirus: prevented infection

## C=C(C)[C@@H]1CCC(C)=C[C@H]1c1c(O)cc(CCC)cc1O [CBDV, cannabidivarin, reference compound]
astrocytes
  levels of interleukin-6 (IL-6) and lactate dehydrogenase (LDH): attenuated levels

## Cc1c(-c2cnccn2)ssc1=S [oltipraz]
ACE2
  ACE2 levels: reduces ACE2 levels

## COC(=O)/C=C/C(=O)OC [dimethyl fumarate]
SARS-CoV-2 [2]
  replication of SARS-CoV-2 in vitro: inhibited replication

## C=C(C)[C@@H]1CCC(C)=C[C@H]1c1c(O)cc(CCCCC)cc1O [CBD, Cannabidiol]
[3]
  EC50: ~5 µM
SARS-CoV-2 [4]; Vero E6 monkey kidney epithelial cells
  inhibition of SARS-CoV-2 replication: inhibited SARS-CoV-2 replication
SARS-CoV-2 [4]; at the effective doses
  toxicity: No toxicity
Caco-2 cells; ELISA, CBD 10-9-10-7 M
  IL-1β, IL-6, TNF and IL-18: parallel inhibition
Caco-2 cells; following CBD treatment
  transepithelial electrical resistance (TEER): restoration
Caco-2 cells; immunoblot, CBD 10-9-10-7 M
  proinflammatory markers triggered by Spike Protein (TLR-4, ACE-2, RhoA-GTPase, NLRP3, Caspase-1): reduce all the analyzed proinflammatory markers
SARS-CoV-2 [5]
  SARS-CoV-2 infection incidence: significantly lower
SARS-CoV-2 [6]
  block of SARS-CoV-2 replication: potently block

## COc1cc(/C=C/C(=O)CC(=O)/C=C/c2ccc(O)c(OC)c2)ccc1O [curcumin, diferuloylmethane]
other
  oral absorption / systemic bioavailability: minimal absorption

## Nc1nc2ncc(CNc3ccc(C(=O)N[C@@H](CCC(=O)O)C(=O)O)cc3)nc2c(=O)[nH]1 [folic acid]
SARS-CoV-2 [7]
  binding affinities against the SARS-CoV-2: strong and stable binding affinities
Furin
  furin inhibition: inhibit furin

## CC1=CC(=O)C(C(C)C)=CC1=O [Thymoquinone]
Blood coagulation
  anticoagulant activity: possesses anticoagulant activity

## CCCCCc1cc(O)c(C/C=C(\C)CCC=C(C)C)c(O)c1C(=O)O [cannabigerolic acid]
Live SARS-CoV-2
  entry of live SARS-CoV-2 into cells: prevented entry
[1]
  infection of human epithelial cells by pseudovirus: prevented infection

## C=C(CC(=O)OCCCCCCCC)C(=O)O [4-octyl-itaconate]
SARS-CoV-2 [2]
  replication of SARS-CoV-2 in vitro: inhibited replication

## bromelain
SARS-CoV-2 [8]
  infection of VeroE6 cells by SARS-CoV-2: inhibits infection
PGE-2
  toxicity: very low toxicity
PGE-2; compared with prednisone and aspirin
  effect on PGE-2 inhibition: exceeds that of prednisone and aspirin

## CC(=O)N[C@@H](CS)C(=O)O [N-acetylcysteine, reference compound]
[9]
  inhibition of H5N1 replication: dose dependent manner
  production of pro-inflammatory cytokines (IL-8, CXCL10, CCL5 and IL-6): reduced the production
influenza
  incidence of clinically apparent influenza and influenza-like episodes: significantly reduced
Pseudotyped SARS-CoV-2
  pseudotyped viral infection: inhibited
SARS-CoV-2 spike
  spike-mediated cell-cell fusion: inhibited
RBD and ACE2
  in vitro binding of RBD and ACE2: inhibited

## Nc1nc2c(c(=O)[nH]1)NC(CNc1ccc(C(=O)N[C@@H](CCC(=O)O)C(=O)O)cc1)CN2 (stereo partly shown) [tetrahydrofolic acid]
SARS-CoV-2 [7]
  binding affinities against the SARS-CoV-2: strong and stable binding affinities

## N[C@@H](CCC(=O)N[C@@H](CS)C(=O)NCC(=O)O)C(=O)O [glutathione, γ-glutamyl cysteinyl glycine]
other
  oral absorption / systemic bioavailability: poor
Pseudotyped SARS-CoV-2
  pseudotyped viral infection: inhibited
SARS-CoV-2 spike
  spike-mediated cell-cell fusion: inhibited
RBD and ACE2
  in vitro binding of RBD and ACE2: inhibited

## C[S+]([O-])CCCCN=C=S (stereo not shown) [SFN, Sulforaphane]
[10]
  lung viral replication and virus-induced inflammation: significantly limited
[11]
  toxicity in cell culture: limited toxicity
[11]; multiple strains of SARS-CoV-2, including Delta and Omicron
  antiviral activity: potent antiviral activity
HCoV-OC43
  antiviral activity: potent antiviral activity

## CC1=C(/C=C/C(C)=C/C=C/C(C)=C/C=C/C=C(C)/C=C/C=C(C)/C=C/C2=C(C)C(=O)[C@@H](O)CC2(C)C)C(C)(C)C[C@H](O)C1=O [Astaxanthin]
[12]
  coagulation, fibrinolytic activity and platelet aggregation: inhibit coagulation, increase fibrinolytic activity and reduce platelet aggregation
[13]
  Glutathione higher compared with placebo: ~7%
  oxidative stress markers or substrate utilization during exercise: did not affect
[13]; fasting blood sample
  Glutathione, whole blood: 1,233±133 μM

## O=c1c(O)c(-c2ccc(O)c(O)c2)oc2cc(O)cc(O)c12 [Quercetin]
[14]
  solubility: low solubility
SARS-CoV-2 viral S-spike
  rank for inhibition of SARS-CoV-2 viral S-spike binding to cells: fifth
other
  oral absorption / systemic bioavailability: reduced oral absorption
[15]
  docking binding energy: -6.25 kcal/mol
[16]
  docking binding energy: -4.62 kcal/mol

## [Zn] [zinc]
[17]
  mRNA levels of glutamate-cysteine ligase: upregulates

## CCCCCc1cc(O)c(C/C=C(\C)CCC=C(C)C)c(O)c1 [CBG, Cannabigerol]
astrocytes
  levels of DNA damage proteins: decreased levels
  levels of interleukin-6 (IL-6) and lactate dehydrogenase (LDH): attenuated levels

## CCCCCc1cc(O)c2c(c1)OC(C)(C)c1ccc(C)cc1-2 [Cannabinol]
CB1
  affinity for CB1: minimal affinity
[18]
  binding to CB2: preferentially binds

## CN1c2c(nc(N)[nH]c2=O)NCC1CNc1ccc(C(=O)N[C@@H](CCC(=O)O)C(=O)O)cc1 (stereo partly shown) [5-methyl tetrahydrofolic acid]
SARS-CoV-2 [7]
  binding affinities against the SARS-CoV-2: strong and stable binding affinities

## C=C(C)[C@@H]1CCC(CO)=C[C@H]1c1c(O)cc(CCCCC)cc1O [7-0H-CBD, 7-OH-CBD]
SARS-CoV-2 [6]
  block of SARS-CoV-2 replication: potently block
